Source: PMC10176470, “Engaging a Non-catalytic Cysteine Residue Drives Potent and Selective Inhibition of Caspase-6” (Journal of the American Chemical Society, 2023)

What was measured:
caspase-6 = caspase-6 (Homo sapiens, UniProt P55212); assay: biochemical
Procedure: Caspase-6 enzyme assay: The in vitro enzymatic caspase-6 assays utilize synthetic tetrapeptide
substrates labeled with either Rhodamine110 (R110) or 7-Amino-4-(trifluoromethyl)coumarin (AFC)
at the P1 aspartic acid (Asp) residue, as described.3 Briefly, assays were performed in 384-well plates
consisting of caspase-6, VEID-Rh110 or Ac-VEID-AFC and indicated concentration of inhibitor or
DMSO in assay buffer (50 mM HEPES pH 8.0, 100 mM NaCl, 1 mM EDTA, and 500 M ME).
All inhibitors were serially diluted in 100% DMSO prior to dilution in assay buffer and transfer to
assay plate, for a final DMSO concentration of 1%. Compound and protein were preincubated for 15 minutes prior to addition of substrate. The reaction plate was incubated at room temperature for 30
minutes and then read on an Envision (Perkin Elmer) fluorescent plate reader at excitation/emission
wavelengths of 485/535 nm (R110) or 395/495 nm (AFC). Data were processed to generate dose-
response curves and analyzed using a nonlinear curve fit with variable slope in Prism software

[1] = target: proteins of HEK293T cells transiently overexpressing caspase-6 (Homo sapiens, UniProt P31943); assay: SILAC proteomics / in-gel fluorescence, competition of probe 13-t labeling by 3a; settings: Comp; protein HNRNPH1 P31943
Procedure: (§1) Cells were lysed, and heavy and light SILAC lysates were combined in a 1:1 ratio and subjected to CuAAC reaction with azido-biotin to biotinylate probe-labeled proteins for subsequent capture on streptavidin-coated beads. Bead-bound proteins were split for analysis by in-gel fluorescence and tryptic digestion on-bead for LC–MS/MS analysis.
(§2) SILAC labeling and alkyne probe treatment: HEK293T cells were seeded into 8x 15 cm plates at
(§3) a density of 500,000 cells/plate. 4 of these plates were grown in light SILAC DMEM and 4 were
(§4) grown in heavy SILAC DMEM all containing 10% FBS and 4.5g/L glucose. The next day, all 8
(§5) plates were transfected with a pCMV6-Entry plasmid coding for caspase-6-myc-DDK lacking the
(§6) prodomain. After 24 hours, media was replaced with fresh SILAC growth media containing 4.5 g/L
(§7) glucose and 3% FBS. 24 hours later the plates were treated with probe and inhibitor for 1 hours as
(§8) follows: 2 of the light plates were treated with vehicle, 2 light plates and 2 heavy plates treated with
(§9) for 60 minutes. After treatment, media was removed, and cells were washed with 15 mL PBS for 5
(§10) minutes. Cells were then harvested by scraping in cold PBS and lysed in the presence of Roche
(§11) complete protease inhibitors. Lysates were clarified by centrifugation at 10,000xg for 10 minutes and
(§12) the protein in the supernatant was quantified by BCA assay.
(§13) Proteomics assay: 1 mg of each lysate was diluted to 2mg/ml in PBS with Roche complete protease
(§14) inhibitors. To this was added 0.1 mM biotin-azide, 1 mM tris(2-carboxyethyl)phosphine (TCEP), 0.1
(§15) mM Tris((1-benzyl-4-triazolyl)methyl)amine (TBTA) ligand, and 1 mM CuSO4 in a final volume of
(§16) 0.5 mL. The reaction was incubated at room temperature for 1 hour and was vortexed every 15
(§17) minutes. After 1 hour, proteins are precipitated and are pelleted by centrifuging at 16,000xg for 4
(§18) min at 4 °C. The supernatants were discarded, and the pellets were solubilized with 0.5 mL cold
(§19) The cold methanol wash was then repeated, and the washed
(§20) pellets were resuspended in 1 mL of 1.2% SDS and sonicated until clear. The samples were heat
(§21) denatured at 80-90 °C for 5 minutes and any insoluble particles were removed by centrifugation at
(§22) 6,500xg for 5 minutes. The 1 mL supernatant was transferred to a 15 mL conical tubes containing 5
(§23) mL of PBS and 150 µL of washed neutravidin beads were added. The samples were incubated for 2
(§24) hours at 4 °C while rotating, at which point the samples were warmed to resolubilize any precipitated
(§25) SDS. The beads were pelleted by centrifugation at 1400xg for 3 min and washed for 10 minutes with
(§26) the following solutions: 2x 1% NP-40, 2x PBS + 1 M NaCl, and 2x 50 mM ammonium bicarbonate
(§27) (ABC) + 2 M urea. The beads were then transferred to a 1.5 mL microcentrifuge tube using 2x250
(§28) µL 100 mM Tris pH 8.0 + 4 M Guanidium hydrochloride (final volume 500 µL).

[2] = target: proteins of HEK293T cells transiently overexpressing caspase-6 (Homo sapiens, UniProt P14625); assay: as above; settings: Comp; protein HSP90B1 P14625
Procedure: as §1, §2, §3, §4, §5, §6, §7, §8, §9, §10, §11, §12, §13, §14, §15, §16, §17, §18, §19, §20, §21, §22, §23, §24, §25, §26, §27, §28

[3] = target: proteins of HEK293T cells transiently overexpressing caspase-6 (Homo sapiens, UniProt Q07666); assay: as above; settings: Comp; protein KHDRBS1 Q07666
Chain of proteins of HEK293T cells transiently overexpressing caspase-6 (Homo sapiens, UniProt Q07666) (Q07666 whole entry): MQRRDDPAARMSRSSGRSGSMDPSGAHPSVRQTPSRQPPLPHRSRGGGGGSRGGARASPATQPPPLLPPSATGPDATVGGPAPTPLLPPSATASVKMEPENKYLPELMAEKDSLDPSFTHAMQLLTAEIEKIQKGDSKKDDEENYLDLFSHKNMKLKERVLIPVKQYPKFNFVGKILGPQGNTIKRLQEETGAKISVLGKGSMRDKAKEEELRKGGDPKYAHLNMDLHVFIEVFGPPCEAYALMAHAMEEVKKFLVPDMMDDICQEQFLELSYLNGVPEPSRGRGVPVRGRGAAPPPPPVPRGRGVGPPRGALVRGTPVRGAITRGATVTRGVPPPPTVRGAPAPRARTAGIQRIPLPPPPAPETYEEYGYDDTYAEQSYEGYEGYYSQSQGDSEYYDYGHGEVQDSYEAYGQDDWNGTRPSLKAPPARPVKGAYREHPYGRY
Procedure: as §1, §2, §3, §4, §5, §6, §7, §8, §9, §10, §11, §12, §13, §14, §15, §16, §17, §18, §19, §20, §21, §22, §23, §24, §25, §26, §27, §28

[4] = target: proteins of HEK293T cells transiently overexpressing caspase-6 (Homo sapiens, UniProt P12277); assay: as above; settings: Comp; protein CKB P12277
Procedure: as §1, §2, §3, §4, §5, §6, §7, §8, §9, §10, §11, §12, §13, §14, §15, §16, §17, §18, §19, §20, §21, §22, §23, §24, §25, §26, §27, §28

[5] = target: proteins of HEK293T cells transiently overexpressing caspase-6 (Homo sapiens, UniProt Q9Y230); assay: as above; settings: Comp; protein RUVBL2 Q9Y230
Procedure: as §1, §2, §3, §4, §5, §6, §7, §8, §9, §10, §11, §12, §13, §14, §15, §16, §17, §18, §19, §20, §21, §22, §23, §24, §25, §26, §27, §28

[6] = target: proteins of HEK293T cells transiently overexpressing caspase-6 (Homo sapiens, UniProt Q9P258); assay: as above; settings: Comp; protein RCC2 Q9P258
Chain of proteins of HEK293T cells transiently overexpressing caspase-6 (Homo sapiens, UniProt Q9P258) (Q9P258 whole entry): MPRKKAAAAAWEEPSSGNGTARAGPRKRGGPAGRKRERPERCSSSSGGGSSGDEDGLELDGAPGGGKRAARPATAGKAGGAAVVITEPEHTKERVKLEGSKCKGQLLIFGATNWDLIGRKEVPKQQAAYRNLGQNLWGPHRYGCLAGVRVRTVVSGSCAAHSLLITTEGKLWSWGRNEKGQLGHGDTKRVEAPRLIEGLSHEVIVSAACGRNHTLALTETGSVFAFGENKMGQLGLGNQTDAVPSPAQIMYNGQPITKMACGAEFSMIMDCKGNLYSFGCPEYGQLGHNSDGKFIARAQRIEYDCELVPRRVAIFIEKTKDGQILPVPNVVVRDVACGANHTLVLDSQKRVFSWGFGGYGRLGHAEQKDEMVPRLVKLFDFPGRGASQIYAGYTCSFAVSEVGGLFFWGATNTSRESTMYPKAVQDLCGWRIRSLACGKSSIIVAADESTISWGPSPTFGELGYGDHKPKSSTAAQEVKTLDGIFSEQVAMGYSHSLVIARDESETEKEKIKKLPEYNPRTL
Procedure: as §1, §2, §3, §4, §5, §6, §7, §8, §9, §10, §11, §12, §13, §14, §15, §16, §17, §18, §19, §20, §21, §22, §23, §24, §25, §26, §27, §28

[7] = target: proteins of HEK293T cells transiently overexpressing caspase-6 (Homo sapiens, UniProt Q14566); assay: as above; settings: Comp; protein MCM6 Q14566
Chain of proteins of HEK293T cells transiently overexpressing caspase-6 (Homo sapiens, UniProt Q14566) (Q14566 whole entry): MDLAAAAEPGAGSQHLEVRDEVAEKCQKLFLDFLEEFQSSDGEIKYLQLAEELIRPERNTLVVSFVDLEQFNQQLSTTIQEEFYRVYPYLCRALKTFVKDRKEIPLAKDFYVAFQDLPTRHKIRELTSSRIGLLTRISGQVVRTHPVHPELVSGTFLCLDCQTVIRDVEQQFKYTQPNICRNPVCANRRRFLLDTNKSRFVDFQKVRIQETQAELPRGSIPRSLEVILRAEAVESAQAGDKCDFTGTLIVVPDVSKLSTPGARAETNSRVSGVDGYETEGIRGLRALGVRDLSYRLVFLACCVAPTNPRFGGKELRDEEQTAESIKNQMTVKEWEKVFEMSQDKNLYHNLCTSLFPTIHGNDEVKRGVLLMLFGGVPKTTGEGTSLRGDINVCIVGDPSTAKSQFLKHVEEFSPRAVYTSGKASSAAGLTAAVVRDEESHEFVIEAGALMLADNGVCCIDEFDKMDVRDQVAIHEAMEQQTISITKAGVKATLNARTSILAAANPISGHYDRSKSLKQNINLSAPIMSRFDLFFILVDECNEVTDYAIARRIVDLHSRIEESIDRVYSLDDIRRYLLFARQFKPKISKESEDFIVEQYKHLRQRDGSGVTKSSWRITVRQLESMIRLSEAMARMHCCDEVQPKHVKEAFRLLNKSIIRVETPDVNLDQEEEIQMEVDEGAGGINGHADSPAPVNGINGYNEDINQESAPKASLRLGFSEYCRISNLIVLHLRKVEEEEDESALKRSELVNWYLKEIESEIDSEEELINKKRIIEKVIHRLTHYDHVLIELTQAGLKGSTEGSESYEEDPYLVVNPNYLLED
Procedure: as §1, §2, §3, §4, §5, §6, §7, §8, §9, §10, §11, §12, §13, §14, §15, §16, §17, §18, §19, §20, §21, §22, §23, §24, §25, §26, §27, §28

[8] = target: proteins of HEK293T cells transiently overexpressing caspase-6 (Homo sapiens, UniProt Q9Y2X3); assay: as above; settings: Comp; protein NOP58 Q9Y2X3
Chain of proteins of HEK293T cells transiently overexpressing caspase-6 (Homo sapiens, UniProt Q9Y2X3) (Q9Y2X3 whole entry): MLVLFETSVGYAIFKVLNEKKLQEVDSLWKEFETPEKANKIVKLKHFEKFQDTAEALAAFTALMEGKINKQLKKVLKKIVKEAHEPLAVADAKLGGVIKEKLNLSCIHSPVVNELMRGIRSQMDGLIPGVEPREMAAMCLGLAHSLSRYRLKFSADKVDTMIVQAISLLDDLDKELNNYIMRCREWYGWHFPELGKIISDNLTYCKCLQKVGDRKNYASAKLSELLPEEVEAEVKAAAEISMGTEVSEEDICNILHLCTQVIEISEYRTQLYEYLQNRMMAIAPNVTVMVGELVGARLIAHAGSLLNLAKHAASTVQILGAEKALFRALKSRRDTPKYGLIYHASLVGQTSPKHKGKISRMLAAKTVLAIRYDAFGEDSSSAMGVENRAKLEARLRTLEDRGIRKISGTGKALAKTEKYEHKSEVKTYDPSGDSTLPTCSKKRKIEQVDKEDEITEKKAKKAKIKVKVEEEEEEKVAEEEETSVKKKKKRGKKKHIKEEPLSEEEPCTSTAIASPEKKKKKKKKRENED
Procedure: as §1, §2, §3, §4, §5, §6, §7, §8, §9, §10, §11, §12, §13, §14, §15, §16, §17, §18, §19, §20, §21, §22, §23, §24, §25, §26, §27, §28

[9] = target: proteins of HEK293T cells transiently overexpressing caspase-6 (Homo sapiens, UniProt P31939); assay: as above; settings: Comp; protein ATIC P31939
Chain of proteins of HEK293T cells transiently overexpressing caspase-6 (Homo sapiens, UniProt P31939) (P31939 whole entry): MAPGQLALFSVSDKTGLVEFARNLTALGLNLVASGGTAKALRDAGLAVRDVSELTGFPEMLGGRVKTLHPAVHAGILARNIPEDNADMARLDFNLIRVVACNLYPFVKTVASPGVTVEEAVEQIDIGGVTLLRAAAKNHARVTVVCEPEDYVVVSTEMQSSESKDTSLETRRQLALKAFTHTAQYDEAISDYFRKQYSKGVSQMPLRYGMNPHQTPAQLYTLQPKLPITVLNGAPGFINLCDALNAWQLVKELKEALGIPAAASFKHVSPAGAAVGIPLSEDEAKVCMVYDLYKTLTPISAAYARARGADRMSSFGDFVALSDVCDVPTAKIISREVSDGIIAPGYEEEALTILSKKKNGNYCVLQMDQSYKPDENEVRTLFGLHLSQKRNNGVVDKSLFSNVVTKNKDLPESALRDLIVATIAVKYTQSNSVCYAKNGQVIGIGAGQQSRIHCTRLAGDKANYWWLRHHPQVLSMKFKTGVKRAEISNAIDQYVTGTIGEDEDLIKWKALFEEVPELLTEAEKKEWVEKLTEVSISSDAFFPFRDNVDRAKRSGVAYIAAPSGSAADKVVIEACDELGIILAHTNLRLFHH
Procedure: as §1, §2, §3, §4, §5, §6, §7, §8, §9, §10, §11, §12, §13, §14, §15, §16, §17, §18, §19, §20, §21, §22, §23, §24, §25, §26, §27, §28

[10] = target: T1, proteins of HEK293T cells transiently overexpressing caspase-6 (Homo sapiens, UniProt P30041); assay: as above; settings: Comp; protein PRDX6 P30041
T1 sequence (P30041 1-224): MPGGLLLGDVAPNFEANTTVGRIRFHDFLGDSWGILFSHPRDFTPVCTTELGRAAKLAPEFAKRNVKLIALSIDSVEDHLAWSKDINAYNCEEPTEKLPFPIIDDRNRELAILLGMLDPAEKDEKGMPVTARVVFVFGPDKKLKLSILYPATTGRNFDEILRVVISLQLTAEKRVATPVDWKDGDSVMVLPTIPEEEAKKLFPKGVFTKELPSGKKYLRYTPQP
Procedure: as §1, §2, §3, §4, §5, §6, §7, §8, §9, §10, §11, §12, §13, §14, §15, §16, §17, §18, §19, §20, §21, §22, §23, §24, §25, §26, §27, §28

[11] = target: proteins of HEK293T cells transiently overexpressing caspase-6 (Homo sapiens, UniProt P33992); assay: as above; settings: Comp; protein MCM5 P33992
Chain of proteins of HEK293T cells transiently overexpressing caspase-6 (Homo sapiens, UniProt P33992) (P33992 whole entry): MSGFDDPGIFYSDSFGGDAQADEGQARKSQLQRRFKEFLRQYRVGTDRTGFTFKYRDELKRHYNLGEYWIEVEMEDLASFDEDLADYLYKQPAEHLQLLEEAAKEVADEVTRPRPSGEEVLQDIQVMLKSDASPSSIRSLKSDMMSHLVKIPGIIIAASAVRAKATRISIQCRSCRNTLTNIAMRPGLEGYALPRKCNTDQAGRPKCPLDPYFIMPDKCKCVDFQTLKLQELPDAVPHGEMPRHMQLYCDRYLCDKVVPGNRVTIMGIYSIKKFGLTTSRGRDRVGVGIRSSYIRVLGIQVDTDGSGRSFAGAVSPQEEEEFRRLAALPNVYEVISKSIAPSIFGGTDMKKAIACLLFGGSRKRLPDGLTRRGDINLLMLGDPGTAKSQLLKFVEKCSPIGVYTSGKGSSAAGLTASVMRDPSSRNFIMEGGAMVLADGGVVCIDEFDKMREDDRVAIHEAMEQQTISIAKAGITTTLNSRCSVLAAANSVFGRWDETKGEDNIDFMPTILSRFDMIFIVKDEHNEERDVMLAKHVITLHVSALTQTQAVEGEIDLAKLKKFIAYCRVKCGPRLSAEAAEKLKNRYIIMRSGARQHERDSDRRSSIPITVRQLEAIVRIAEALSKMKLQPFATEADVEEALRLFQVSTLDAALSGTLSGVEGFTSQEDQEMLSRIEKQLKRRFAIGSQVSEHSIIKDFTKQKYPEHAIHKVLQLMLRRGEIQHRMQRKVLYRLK
Procedure: as §1, §2, §3, §4, §5, §6, §7, §8, §9, §10, §11, §12, §13, §14, §15, §16, §17, §18, §19, §20, §21, §22, §23, §24, §25, §26, §27, §28

[12] = target: proteins of HEK293T cells transiently overexpressing caspase-6 (Homo sapiens, UniProt P12956); assay: as above; settings: Comp; protein XRCC6 P12956
Chain of proteins of HEK293T cells transiently overexpressing caspase-6 (Homo sapiens, UniProt P12956) (P12956 whole entry): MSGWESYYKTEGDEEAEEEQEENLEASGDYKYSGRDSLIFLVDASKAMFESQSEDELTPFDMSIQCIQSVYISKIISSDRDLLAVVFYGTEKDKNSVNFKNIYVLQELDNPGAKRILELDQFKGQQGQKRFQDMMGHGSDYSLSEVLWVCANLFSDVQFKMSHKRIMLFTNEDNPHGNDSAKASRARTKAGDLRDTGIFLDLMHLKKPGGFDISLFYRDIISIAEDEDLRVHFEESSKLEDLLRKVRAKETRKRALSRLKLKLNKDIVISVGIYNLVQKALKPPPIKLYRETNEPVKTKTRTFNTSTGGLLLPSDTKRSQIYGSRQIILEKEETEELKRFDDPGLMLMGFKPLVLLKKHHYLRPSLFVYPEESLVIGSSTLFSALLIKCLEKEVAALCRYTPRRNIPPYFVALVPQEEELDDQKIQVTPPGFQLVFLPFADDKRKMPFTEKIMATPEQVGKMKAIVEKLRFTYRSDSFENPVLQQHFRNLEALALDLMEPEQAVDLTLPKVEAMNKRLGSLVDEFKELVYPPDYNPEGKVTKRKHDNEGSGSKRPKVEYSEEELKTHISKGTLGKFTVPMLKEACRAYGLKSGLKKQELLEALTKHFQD
Procedure: as §1, §2, §3, §4, §5, §6, §7, §8, §9, §10, §11, §12, §13, §14, §15, §16, §17, §18, §19, §20, §21, §22, §23, §24, §25, §26, §27, §28

[13] = target: proteins of HEK293T cells transiently overexpressing caspase-6 (Homo sapiens, UniProt P46779); assay: as above; settings: Comp; protein RPL28 P46779
Procedure: as §1, §2, §3, §4, §5, §6, §7, §8, §9, §10, §11, §12, §13, §14, §15, §16, §17, §18, §19, §20, §21, §22, §23, §24, §25, §26, §27, §28

[14] = target: proteins of HEK293T cells transiently overexpressing caspase-6 (Homo sapiens, UniProt Q9BZZ5); assay: as above; settings: Comp; protein API5 Q9BZZ5
Chain of proteins of HEK293T cells transiently overexpressing caspase-6 (Homo sapiens, UniProt Q9BZZ5) (Q9BZZ5 whole entry): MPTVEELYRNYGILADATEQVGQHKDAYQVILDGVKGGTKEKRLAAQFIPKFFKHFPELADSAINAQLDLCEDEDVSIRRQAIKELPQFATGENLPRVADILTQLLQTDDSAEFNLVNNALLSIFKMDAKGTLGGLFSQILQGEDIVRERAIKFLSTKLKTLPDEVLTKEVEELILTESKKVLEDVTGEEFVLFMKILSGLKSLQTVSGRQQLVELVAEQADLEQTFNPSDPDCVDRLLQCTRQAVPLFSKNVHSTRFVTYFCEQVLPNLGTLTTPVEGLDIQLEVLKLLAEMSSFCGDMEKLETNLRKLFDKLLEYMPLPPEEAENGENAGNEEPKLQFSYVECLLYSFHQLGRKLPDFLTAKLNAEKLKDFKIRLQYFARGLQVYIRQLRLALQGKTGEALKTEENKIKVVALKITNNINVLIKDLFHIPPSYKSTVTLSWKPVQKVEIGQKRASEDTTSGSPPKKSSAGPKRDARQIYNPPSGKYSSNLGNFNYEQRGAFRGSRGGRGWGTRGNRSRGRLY
Procedure: as §1, §2, §3, §4, §5, §6, §7, §8, §9, §10, §11, §12, §13, §14, §15, §16, §17, §18, §19, §20, §21, §22, §23, §24, §25, §26, §27, §28

[15] = system: lamin A cleavage by caspase-6 in SK-N-AS cells; assay: Lamin cleavage assay (in-cell western after staurosporine induction); type: cell-based; settings: Homo sapiens, 1 h compound then staurosporine 3 h
Procedure: This assay measured lamin A cleavage under staurosporine-induced caspase activation; while staurosporine activates all executioner caspases, lamin A cleavage monitors only the activity of C6. After 1 h of preincubation with the compound and 3 h of incubation with staurosporine, lamin A cleavage was measured by in-cell western.
Inhibition of lamin A cleavage in SK-N-AS cells after staurosporine induction of caspases. Cells were treated with the indicated compound for 1 h before the addition of 10 μM staurosporine for 4 h. Error bars indicate the standard deviation from n = 4 replicate samples.
serves as a useful target-engagement assay in cells. We used the procedure of Mintz, et al, with the following modifications: SK-N-AS cells were seeded at 10,000 cells/well in black clear bottom 384-
well plates coated with poly-D-lysine and allowed to adhere overnight. Wells were treated with
varying doses of casapase-6 inhibitor, from 5 µM – 0.1 nM in 2-fold dilutions. After one hour, cells
were treated with 10 µM staurosporine to induce apoptosis and activation of multiple caspases. 3
hours after staurosporine addition, cells were fixed and permeabilized before in-cell westerns were
performed, as described.9

Compound | IC50 (caspase-6) [nM] | enrich.exp.med [1] | enrich.exp.med [2] | enrich.exp.med [3] | enrich.exp.med [4] | enrich.exp.med [5] | enrich.exp.med [6] | enrich.exp.med [7] | enrich.exp.med [8] | enrich.exp.med [9] | enrich.exp.med [10] | enrich.exp.med [11] | enrich.exp.med [12] | enrich.exp.med [13] | enrich.exp.med [14] | IC50 [15] [nM]
C#CCOc1ccc([C@@H]2C[C@@H](C(=O)Nc3ccc(OC(F)(F)F)cc3)CN(S(=O)(=O)C=C)C2)cc1 (relative stereo) [13-t] | 48 ± 2 |  |  |  |  |  |  |  |  |  |  |  |  |  |  | 
C=CS(=O)(=O)N1C[C@H](C(=O)Nc2ccc(OC(F)(F)F)cc2)C[C@@H](c2ccccc2)C1 [3a] |  | 0.7263 | 0.7874 | 0.748 | 0.6631 | 0.7589 | 0.5769 | 0.8484 | 0.7213 | 0.7149 | 0.6066 | 0.8256 | 0.7902 | 0.6162 | 0.5956 | 170 ± 4
